Experimental data: patent publication US6031073A, “Cyclic polypeptides comprising a thioether linkage and methods for their preparation” (La Jolla Pharmaceutical Company, priority 1997, dated 2000)
Numbered stars: 1 amine (or outer) side, 2 acyl side, 3 side chain; on linkers, the order of the positions; unused ones are H or OH. Bridge positions count the residues as written; N and C are the ends. Square brackets hold non-standard residues; d marks the D form. Peptide text beside a SMILES is read from it. Abu(4-yl) = O=C([C@H](CC[*:3])N[*:1])[*:2]; hCys = N[C@@H](CCS)C(=O)O

Key:
[1] = molecular target: anticardiolipin antibody (serum of patient ACA-6701); test: competitive ELISA, binding of patient ACA-6701 serum to cardiolipin/β2-GPI coated plate; settings: amount of peptide that inhibited the human serum's binding by 50%; serum of patient ACA-6701 (GPL score 102)
Experimental: (§1) The binding affinities of a number of the thioether cyclic polypeptides of the present invention to anticardiolipin antibody were determined by a competitive ELISA (i.e., enzyme-linked immunosorbent assay) and compared with binding affinities of the corresponding disulfide cyclic polypeptides (e.g., 3G3, 2G3, and G3).
(§2) Of 96 wells of a flat-bottom Immulon I microtiter plate (Dynatech Labs, Alexandria, Va.), 94 wells were coated with […] cardiolipin per well in 30 mL, of ethanol. The remaining two wells were used as controls and each received 30 mL, of ethanol. After overnight evaporation at 4° C., the plate was blocked for 2 hours at room temperature with 200 mL of 5% (w/v) fish gelatin in phosphate buffered saline (i.e., PBS, 0.15 M NaCl and 0.01 M Na2 HPO4 at pH 7.2). The plate was washed five times in Tris buffered saline (i.e., TBS, 0.15 M NaCl and 0.05 M Tris-HCl at pH 8.5). Then, β2 -glycoprotein I (i.e., β2 -GPI) was added as […] of 2.3% (v/v) IgG-depleted human serum (Sigma Chemical Co.) and incubated for 2 hours at room temperature.
(§3) During this incubation, peptide solutions (around 2 mg/mL) were prepared by dissolving thioether cyclic peptides in 3% fish gelatin in TBS. The serums of patient ACA-6501, who has a GPL (i.e., IgG Phospholipid) score of 1500, and patient ACA-6701, who has a GPL score of 102, were diluted about 40-fold in 3% fish gelatin in TBS-PBS (1:1). Variable amounts of each of peptides were combined with 22 mL of each of the diluted human serums and then made up to the final volume of 220 mL with 3% fish gelatin in TBS-PBS (1:1). For each peptide, at least four peptide concentrations were employed and each data point was determined in duplicate.
(§4) After 5 washes with TFBS, 100 mL of the peptide/human serum solution was added and the microplate was agitated at 40 rpm in an orbital shaker (American Scientific, Rotator V) for one hour at room temperature. The plate was washed extensively with TBS (5 times) and 100 mL of diluted (1/1000) alkaline phosphatase-conjugated goat anti-human IgG (Zymed, South San Francisco, Calif.) in 0.5% (w/v) BSA-TBS was added to each well (i.e., bovine serum albumin, BSA). The plate was then incubated for one hour at room temperature followed by addition of […]/well of PPMP solution (3 g/L phenolphthalein monophosphate plus 26.7 g/L 2-amino-2-methyl-1-propanol in water). The plate was allowed to develop at room temperature for 21 min and the reaction was stopped by adding 50 mL of 0.2 M Na2 HPO4 (Mallinckrodt) to each well. Blanks consisted of protein-coated wells that received similar treatment except human serum was not added to these wells. The plate was read at 550 nm using a microplate reader (Bio-Tek Instruments, Model EL 311).
(§5) Absorbance vs. amount of peptide added was plotted using Graph Pad Prism (Graph Pad Software, Inc.). The amount of peptide that inhibited the human serum's binding by 50%, known as IC50, was calculated from the graph at the intersection of half-maximal absorbance with amount of peptide added.

[2] = molecular target: anticardiolipin antibody (serum of patient ACA-6501); test: competitive ELISA, binding of patient ACA-6501 serum to cardiolipin/β2-GPI coated plate; design: species or system human; settings: for IC50: amount of peptide that inhibited the human serum's binding by 50%, serum of patient ACA-6501 (GPL score 1500)
Experimental: as §1, §2, §3, §4, §5

Row | SMILES | IC50 [1] | IC50 [2] | biological activity in comparison with the corresponding disulfide cyclic peptide ([2]; general statement on Table 1 (sera ACA-6501 and ACA-6701)) | activity relative to disulfide peptide G3 ([2]; patient ACA-6501)
1 | CC(C)C[C@@H]1NC(=O)[C@H](CCCCN)NC(=O)CNC(=O)[C@H](CC(C)C)NC(=O)[C@H](C(C)C)NC(=O)CNC(=O)[C@H](CC(C)C)NC(=O)[C@@H](N)CSCC[C@@H](C(N)=O)NC1=O [G3-METE] (H-CLGVLGKL[Abu(4-yl)]-NH2; thioether 1-9) | 36 µM | 104 µM | – | –
2 | CC(C)C[C@@H]1NC(=O)[C@H](CCCCN)NC(=O)CNC(=O)[C@H](CC(C)C)NC(=O)[C@H](C(C)C)NC(=O)CNC(=O)[C@H](CC(C)C)NC(=O)[C@@H](N)CCSCC[C@@H](C(N)=O)NC1=O [G3-EETE] (H-[hCys]LGVLGKL[Abu(4-yl)]-NH2; thioether 1-9) | 40 µM | 89 µM | – | –
3 | CC(C)C[C@@H]1NC(=O)C(NC(=O)[C@@H]2CCCN2C(=O)CN)CSC[C@@H](C(=O)N2CCC[C@H]2C(=O)NCC(=O)O)NC(=O)[C@H](CC(C)C)NC(=O)[C@H](CCCCN)NC(=O)CNC(=O)[C@H](CC(C)C)NC(=O)[C@H](C(C)C)NC(=O)CNC1=O (stereo partly drawn) [2G3-MMTE] | > 678 µM | > 678 µM | – | –
4 | CC(C)C[C@@H]1NC(=O)[C@@H](NC(=O)[C@@H]2CCCN2C(=O)CN)CSCC[C@@H](C(=O)N2CCC[C@H]2C(=O)NCC(=O)O)NC(=O)[C@H](CC(C)C)NC(=O)[C@H](CCCCN)NC(=O)CNC(=O)[C@H](CC(C)C)NC(=O)[C@H](C(C)C)NC(=O)CNC1=O (single isomer, unassigned) [l-2G3-METE] | 486 µM | 209 µM | – | –
5 | CC(C)C[C@@H]1NC(=O)C(N)CSC[C@@H](C(N)=O)NC(=O)[C@H](CC(C)C)NC(=O)[C@H](CCCCN)NC(=O)CNC(=O)[C@H](CC(C)C)NC(=O)[C@H](C(C)C)NC(=O)CNC1=O (stereo partly drawn) [G3-MMTE] | 57 µM | 126 µM | – | –
6 | CC(C)C[C@@H]1NC(=O)[C@H](CCCCN)NC(=O)CNC(=O)[C@H](CC(C)C)NC(=O)[C@H](C(C)C)NC(=O)CNC(=O)[C@H](CC(C)C)NC(=O)[C@@H](N)CCSC[C@@H](C(N)=O)NC1=O [G3-EMTE] (H-[Abu(4-yl)]LGVLGKLC-NH2; thioether 1-9) | 34 µM | 52 µM | more active than the disulfide peptide G3 | about twice as active as G3
7 | CC(C)C[C@@H]1NC(=O)C(NC(=O)[C@@H]2CCCN2C(=O)CNC(=O)[C@H](C)N)CSC[C@@H](C(=O)N2CCC[C@H]2C(=O)NCC(=O)O)NC(=O)[C@H](CC(C)C)NC(=O)[C@H](CCCCN)NC(=O)CNC(=O)[C@H](CC(C)C)NC(=O)[C@H](C(C)C)NC(=O)CNC1=O (stereo partly drawn) [3G3-MMTE] | ~1050 µM | ~1050 µM | – | –
8 | CC(C)C[C@@H]1NC(=O)[C@H](CCCCN)NC(=O)CNC(=O)[C@H](CC(C)C)NC(=O)[C@H](C(C)C)NC(=O)CNC(=O)[C@H](CC(C)C)NC(=O)[C@H](NC(=O)[C@@H]2CCCN2C(=O)CN)CSCC[C@@H](C(=O)N2CCC[C@H]2C(=O)NCC(=O)O)NC1=O (single isomer, unassigned) [d-2G3-METE] | 436 µM | 100 µM | – | –
